The record followed here is patent publication US10344019B2 (priority 2010, dated 2019).

Structures are written as SMILES. pEC50: −log10 of the molar value. Like-named read-outs stand apart in the source and are kept apart here.

What all share (experiment): microbe, parasite or virus in culture
Common to all, as to type: cell-based

Assay [1] has as its system HCV 1a RLuc cells (dicistronic genotype 1a H77 replicon, RLuc reporter). To be noted: Hepatitis C virus, read-out: 1a. In a few lines: (§1)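 Replicon cells stably carrying the listed RLuc-encoding dicistronic replicons were seeded and treated with DMSO serial dilutions of compound (10 mM stocks) diluted into culture medium. After 72 h, cells were lysed and Renilla luciferase activity measured. EC50 was derived by non-linear regression.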

Assay [2] deals with HCV 1b RLuc cells (dicistronic genotype 1b Con1 replicon, RLuc reporter). The note with it: Hepatitis C virus, read-out: 1b (nM). The method in brief: as §1
Assay [3] relates to HCV 2a JFH-1 Rluc cells (dicistronic genotype 2a JFH-1 replicon, RLuc reporter). To be noted: Hepatitis C virus, genotype 2a JFH-1 replicon, read-out: 2a JFH. In a few lines:
as §1
On the technique in general: Replicon systems follow genome replication, usually without infectious particles.

The test system of assay [4] is HCV 3a RLuc cells (NS5A chimeric genotype 1b Con1 replicon with consensus genotype 3a NS5A gene). The note with it: Hepatitis C virus. In a few lines: as §1
For assay [5], the system named is HCV 4a Rluc cells (NS5A chimeric genotype 1b Con1 replicon with genotype 4a NS5A gene). To be noted: Hepatitis C virus, read-out: 4a. In a few lines:
as §1

Where [6] appears, read: genotype 1a H77 replicon, RLuc reporter.
Where [7] appears, read: read-out: 3a, genotype 3a NS5A chimeric 1b Con1 replicon.
Where [8] appears, read: 72 h, Table 2, genotype 1a H77 replicon, 72 hours.
Where [9] appears, read: read-out: 3a, Table 2, genotype 3a NS5A chimeric replicon.
Setting [10] is: read-out: 3a, genotype 3a replicon.

Turning to `COC(=O)N[C@H](C(=O)N1CCC[C@H]1c1nc2c([nH]1)-c1ccc(-c3ccc4cc(-c5cnc([C@@H]6CCCN6C(=O)[C@H](NC(=O)C(C)(C)O)c6ccccc6)[nH]5)ccc4c3)cc1CC2)C(C)C` [Example 244], the pEC50 in assay [1] (setting [6]), in assay [3] (RLuc reporter), in assay [4] (setting [7]) and in assay [5] was 9.00 to 12.00 each time. In addition, the EC50 in assay [2] was found to be 0.014 nM.

In the case of `COC(=O)N[C@H](C(=O)N1CC2(CC2)C[C@H]1c1ncc(-c2ccc(-c3ccc4cc(-c5cnc([C@@H]6CCCN6C(=O)[C@H](NC(=O)OC)c6ccccc6)[nH]5)ccc4c3)cc2)[nH]1)C(C)C` [Example 233], the pEC50 in assay [1] (setting [6]), in assay [3] (RLuc reporter), in assay [4] (setting [7]) and in assay [5] was 9.00 to 12.00 in each case. In assay [2], the EC50 came to 0.005 nM.

On to `COC(=O)N[C@H](C(=O)N1CCC[C@H]1c1ncc(-c2ccc3cc(-c4ccc(-c5cnc([C@@H]6CC(O)CN6C(=O)[C@H](NC(=O)OC)c6ccccc6)[nH]5)cc4)ccc3c2)[nH]1)C(C)C` (stereo partly shown) [Example 256], for which the pEC50 in assay [1] (setting [6]), in assay [3] (RLuc reporter), in assay [4] (setting [7]) and in assay [5] was 9.00 to 12.00 throughout. In addition, the EC50 in assay [2] worked out at 0.015 nM.

Consider `COC(=O)NC(C(=O)N1CCC[C@@H]1c1nc(-c2ccc3c(c2)C(F)(F)c2cc(-c4ccc5nc([C@@H]6[C@H]7CC[C@H](C7)N6C(=O)[C@H](NC(=O)OC)c6ccccc6)[nH]c5c4)ccc2-3)c[nH]1)[C@@H](C)OC` (stereo partly shown) [Example 81], for which the pEC50 in assay [1] (setting [8]) is 9.00 to 12.00; in assay [3] (72 h, Table 2, 72 hours), 9.00 to 12.00; in assay [4] (setting [9]), 9.00 to 12.00; in assay [5] it was 9.00 to 12.00. Also, the EC50 in assay [2] (72 h) is 0.006 nM.

In the case of `COC(=O)N[C@H](C(=O)N1CCC[C@H]1c1nc2c([nH]1)-c1ccc(-c3ccc4cc(-c5cnc([C@@H]6CCCN6C(=O)[C@H](NC(=O)OC)c6ccccc6)[nH]5)ccc4c3)cc1CC2)C1CCNCC1` [Example 284], the pEC50 in assay [1] (setting [6]) is 7.36 to 9.00; in assay [3] (RLuc reporter), 7.36 to 9.00; in assay [4] (setting [7]), under 8.30; in assay [5] it was 9.00 to 12.00. Moreover, the EC50 in assay [2] worked out at 4.62 nM.

For `COC(=O)N[C@H](C(=O)N1CCC[C@H]1c1nc2ccc3cc(-c4ccc(-c5cnc([C@@H]6[C@H]7CC[C@H](C7)N6C(=O)[C@@H](NC(=O)OC)C6CCOCC6)[nH]5)cc4)ccc3c2[nH]1)C(C)C` [Example 62], the pEC50 in assay [1] (setting [8]) was 9.00 to 12.00; in assay [3] (72 h, Table 2, 72 hours), 9.00 to 12.00; in assay [4] (setting [9]), 9.00 to 12.00; in assay [5], 9.00 to 12.00. In addition, the EC50 in assay [2] (72 h) was 0.034 nM.

Turning to `COC(=O)N[C@H](C(=O)N1[C@@H]2CC[C@@H](C2)[C@H]1c1nc2c([nH]1)-c1ccc(-c3ccc4c(ccc5nc([C@@H]6CCCN6C(=O)[C@@H](NC(=O)OC)[C@@H](C)OC)[nH]c54)c3)cc1CC2)C(C)C` [Example 292], the pEC50 in assay [1] (genotype 1a replicon), in assay [3], in assay [4] (setting [10]) and in assay [5] was 9.00 to 12.00 in each case. In addition, the EC50 in assay [2] came out at 0.059 nM.

Turning to `COC(=O)N[C@H](C(=O)N1[C@@H]2C[C@@H]2C[C@H]1c1nc2ccc3cc(-c4ccc(-c5cnc([C@@H]6[C@H]7CC[C@H](C7)N6C(=O)[C@@H](NC(=O)OC)C6CCOCC6)[nH]5)cc4)ccc3c2[nH]1)C(C)C` [Example 335], the pEC50 in assay [1] (genotype 1a replicon), in assay [3], in assay [4] (setting [10]) and in assay [5] was 9.00 to 12.00 each time. Besides, the EC50 in assay [2] is 0.027 nM.

Turning to `COC(=O)N[C@H](C(=O)N1CCC[C@H]1c1ncc(-c2ccc3c(ccc4cc(-c5cnc([C@@H]6[C@H]7CC[C@H](C7)N6C(=O)[C@@H](NC(=O)OC)C(C)C)[nH]5)ccc43)c2)[nH]1)C(C)C` [Example 303], the pEC50 in assay [1] (genotype 1a replicon), in assay [3], in assay [4] (setting [10]) and in assay [5] was 9.00 to 12.00 each time. In addition, the EC50 in assay [2] stood at 0.008 nM.

Take `COC(=O)N[C@H](C(=O)N1CCC[C@H]1c1nc2ccc3cc(-c4ccc5cc(-c6cnc([C@@H]7[C@H]8CC[C@H](C8)N7C(=O)[C@H](NC(=O)OC)c7ccccc7)[nH]6)ccc5c4)ccc3c2[nH]1)C(C)C` [Example 39]: the pEC50 in assay [1] (setting [8]) is 9.00 to 12.00; in assay [3] (72 h, Table 2, 72 hours) it was 7.36 to 9.00; in assay [4] (setting [9]), 8.30 to 9.00; in assay [5], 9.00 to 12.00. Besides, the EC50 in assay [2] (72 h) came out at 0.009 nM.

For the compound `COC(=O)N[C@H](C(=O)N1CCC[C@H]1c1ncc(-c2ccc3cc(-c4ccc(-c5cnc([C@@H]6CCCN6C(=O)[C@H](NC(=O)c6ccccn6)c6ccccc6)[nH]5)cc4)ccc3c2)[nH]1)C(C)C` [Example 221], the pEC50 in assay [1] (setting [6]), in assay [3] (RLuc reporter), in assay [4] (setting [7]) and in assay [5] was 9.00 to 12.00 throughout. In assay [2], the EC50 stood at 0.017 nM.

On to `COC(=O)N[C@H](C(=O)N1CCC[C@H]1c1ncc(-c2ccc3c(c2F)COc2c-3ccc(-c3cnc([C@@H]4CCCN4C(=O)[C@@H](NC(=O)OC)C(C)C)[nH]3)c2F)[nH]1)C(C)C` [Example 330], for which the pEC50 in assay [1] (genotype 1a replicon), in assay [3], in assay [4] (setting [10]) and in assay [5] was 9.00 to 12.00 each time. Moreover, in assay [2], the EC50 was 0.006 nM.

In the case of `CCC(CC)[C@H](NC(=O)OC)C(=O)N1CCC[C@H]1c1ncc(-c2ccc3cc(-c4ccc(-c5cnc([C@@H]6CCCN6C(=O)[C@H](NC(=O)OC)c6ccccc6)[nH]5)cc4)ccc3c2)[nH]1` [Example 286], the pEC50 in assay [1] (setting [6]), in assay [3] (RLuc reporter), in assay [4] (setting [7]) and in assay [5] was 9.00 to 12.00 each time. For the same compound, the EC50 in assay [2] came out at 0.003 nM.

For `COC(=O)N[C@H](C(=O)N1CCC[C@H]1c1nc2c([nH]1)COc1cc(-c3ccc4cc(-c5c[nH]c([C@@H]6CCCN6C(=O)[C@@H](c6ccccc6)N(C)C)n5)ccc4c3)ccc1-2)C(C)C` [Example 177], the pEC50 in assay [1] (setting [6]), in assay [3] (RLuc reporter), in assay [4] (setting [7]) and in assay [5] was 9.00 to 12.00 each time. Besides, the EC50 in assay [2] came to 0.01 nM.

On to `COC(=O)N[C@H](C(=O)N1[C@@H]2CC[C@@H](C2)[C@H]1c1nc2c([nH]1)-c1ccc(-c3ccc4c(ccc5nc([C@@H]6CCCN6C(=O)[C@@H](NC(=O)OC)C6CCOCC6)[nH]c54)c3)cc1CC2)C(C)C` [Example 291], for which the pEC50 in assay [1] (genotype 1a replicon), in assay [3], in assay [4] (setting [10]) and in assay [5] was 9.00 to 12.00 in each case. In addition, the EC50 in assay [2] was found to be 0.103 nM.

On to `CC#Cc1cc(-c2cnc([C@@H]3CCCN3C(=O)[C@@H](NC(=O)OC)C(C)C)[nH]2)ccc1-c1ccc(-c2cnc([C@@H]3CCCN3C(=O)[C@@H](NC(=O)OC)C3CCOCC3)[nH]2)cc1` [Example 347], for which the pEC50 in assay [1] (genotype 1a replicon), in assay [3], in assay [4] (setting [10]) and in assay [5] was 9.00 to 12.00 each time. Moreover, the EC50 in assay [2] amounted to 0.055 nM.

In the case of `COC(=O)N[C@H](C(=O)N1CCS[C@H]1c1nc2ccc3cc(-c4ccc(-c5cnc([C@@H]6CCCN6C(=O)[C@@H](NC(=O)OC)C6CCOCC6)[nH]5)cc4)ccc3c2[nH]1)C(C)C` [Example 316], the pEC50 in assay [1] (genotype 1a replicon), in assay [3], in assay [4] (setting [10]) and in assay [5] was 9.00 to 12.00 in each case. Moreover, the EC50 in assay [2] turned out to be 0.242 nM.

With `COC(=O)N[C@H](C(=O)N1CCC[C@H]1c1ncc(-c2ccc3c(c2)CCc2cc(-c4cnc([C@@H]5[C@H]6CC[C@H](C6)N5C(=O)[C@@H](NC(=O)OC)C5CCOCC5)[nH]4)ccc2-3)[nH]1)C(C)C` [Example 92], the pEC50 in assay [1] (setting [8]) is 9.00 to 12.00; in assay [3] (72 h, Table 2, 72 hours), 9.00 to 12.00; in assay [4] (setting [9]), 9.00 to 12.00; in assay [5], 9.00 to 12.00. The EC50 in assay [2] (72 h) was 0.047 nM.

For `COC(=O)N[C@H](C(=O)N1CCC[C@H]1c1ncc(-c2ccc(-c3ccc(-c4cnc([C@@H]5[C@H]6CC[C@H](C6)N5C(=O)[C@@H](NC(=O)OC)C5CCOCC5)[nH]4)cc3)cc2)[nH]1)C(C)C` [Example 61], the pEC50 in assay [1] (setting [8]) is 9.00 to 12.00; in assay [3] (72 h, Table 2, 72 hours) it was 9.00 to 12.00; in assay [4] (setting [9]), 8.30 to 9.00; in assay [5], 9.00 to 12.00. Also, in assay [2] (72 h), the EC50 was determined as 0.087 nM.

Take `COC(=O)N[C@H](C(=O)N1CCC[C@H]1c1ncc(-c2ccc3c(c2)C(F)(F)c2cc(-c4ccc5nc([C@@H]6[C@H]7CC[C@H](C7)N6C(=O)[C@H](NC(=O)OC)c6ccccc6)[nH]c5c4)ccc2-3)[nH]1)C1CCOCC1` [Example 56]: the pEC50 in assay [1] (setting [8]) was 9.00 to 12.00; in assay [3] (72 h, Table 2, 72 hours) it was 9.00 to 12.00; in assay [4] (setting [9]) it was 9.00 to 12.00; in assay [5], 9.00 to 12.00. Further, the EC50 in assay [2] (72 h) came to 0.01 nM.
